Experiments:
[1] = biological target: MN (Homo sapiens, UniProt Q16790); test: Immunoprecipitation of biotinylated cell surface proteins; assay type: binding; design: incubated with cell lysates of MN+ (Pc3 mm2) and MN− (DLD-1) cell lines that had been selectively labeled with biotin; endogenous in cells; host or cells: PC-3 mm2 (MN+); DLD-1 as the MN- control; settings: Table 4 profile
Description: To further explore specificity, various candidate antibodies including the antibody portion of 3ee9/MMAE (3ee9) and the reference antibody G250 were incubated with cell lysates of MN+ (Pc3 mm2) and MN− (DLD-1) cell lines that had been selectively labeled with biotin. Complexes between the antibodies and cellular proteins were immuno-precipitated and the co-precipitated antigens visualized using immunoblots developed with enzyme-linked streptavidin.

[2] = system: MN-negative DLD cells; test: FACS cell binding, DLD cells; assay type: cell-based
Description: Cells may be assayed for MN expression as a diagnostic tool. Adherent MN-expressing PC-3 mm2 cells and non-MN expressing DLD1 cells were detached from their flasks with 1:10 trypsin/Versene in PBS solution for 5 to 10 minutes. Cells were spun down (1000 rpm, 5 minutes), washed once with ice cold RPMI 10% FBS, and resuspended in ice-cold staining buffer (Ca^+ Mg^+-free PBS, 2% BSA, and 0.05% sodium azide) at 6×10^6 cells/ml. Primary antibody, human anti-MN IgG1, or control human IgG1 antibody at 25 μg/mL were incubated with 6×10^5 cells on ice for 1 hour. The unbound antibody was washed from the cells with the ice-cold staining buffer. The cells were fixed with 2% formaldehyde in PBS for 10 minutes, then washed twice with staining buffer. The cell pellet was resuspended in 100 μl ice cold staining buffer containing anti-human Alexa fluor 488 secondary antibody (final conc. 1:200, Molecular Probes/Invitrogen, Carlsbad, Calif.), and incubated on ice for 1 hour. The unbound antibody was washed from the cells two times with flow buffer (PBS containing 2% BSA), and the cells were resuspended in 1 mL flow buffer. FACS analysis of the resuspended cells was performed on a […] FACS Caliber instrument.
The MN antibody G250, a humanized IgG1 antibody, (Wilex) was used as a reference throughout the in vitro studies.

[3] = system: HCT-15 multi-drug resistant (P-gp) CRC xenograft; test: HCT-15 multi-drug resistant xenograft model; assay type: in vivo, NCr nu/nu mice; settings: HCT-15 MDR model
Description: To examine the effect of 3ee9/MMAE in a multi-drug resistance model, female NCr nu/nu mice were implanted subcutaneously (s.c.) with 5×10^6 HCT-15 cells. HCT-15 is a multi-drug resistant (MDR) line that over-expresses P-glycoprotein (P-gp). […] 3ee9/MMAE, Taxol, and Gemcitabine were administered when mice had established tumors with mean weight of ˜150 mg. Gemcitabine, a pyrimidine analog that is not a P-gp substrate was used as a positive control.

[4] = system: MN-expressing cells (PC3 mm2); test: Spindle formation / tubulin staining, Pc3 mm2; assay type: cell-based, human; settings: tubulin stained with fluorescence labeled antibody
Text: The cytotoxic drug MMAE delivered by 3ee9/MMAE is a tubulin inhibitor that prevents spindle formation during cell mitosis resulting in G2/M arrest. The tubulin is stained with florescence labeled antibody. […] These studies confirmed that the antibody drug conjugate 3ee9/MMAE kills cell through targeted tubulin disruption.

[5] = system: MN-expressing MaTu cells; test: FACS cell binding, MaTu cells; assay type: cell-based, human
[6] = system: MN-expressing cells (PC3 mm2); test: Antibody internalization (Cellomics), PC3 mm2; assay type: cell-based, human
[7] = system: tubulin in HT-29 tumors; test: In vivo mechanism of action, immunohistochemistry of HT-29 tumors; design: species or system athymic mice
Description: To explore the in vivo mechanism of action of 3ee9/MMAE, tumors were implanted subcutaneously at right flank of the mice with 5×10^6 HT-29 cells. Eight days later, athymic mice bearing HT-29 tumors were treated with vehicle or with 3ee9/MMAE at 1.25 and 5 mg/kg (Q1Dx1). Tumors were collected and fixed in formalin 4 hours and 1, 3 and 5 hours following administration of 3ee9/MMAE. Samples were then embedded in paraffin, sectioned at 5 μm, de-paraffinized, and stained using standard protocol for fluorescent immunohistochemistry of human tissues using mouse antibodies: Anti-α/β-tubulin, Anti-phospho-Histone H3, and DNA. The slides were then observed under a fluorescent microscope, and representative images were taken through three separate color channels.
3ee9/MMAE had little effect in affecting cell mechanism in the 4 hr samples. […] In addition, decreased level of tubulin staining could be observed. These effects were then highly amplified in the day 3 and day 5 samples.

[8] = system: MN-negative MIAPaca2 cells; test: In vitro cytotoxicity, MIAPaca2

## 3ee9/MMAE: human anti-MN IgG1 antibody 3ee9 conjugated to Monomethylauristatin E (MMAE)
[1]
  Immunoprecipitation: specific
[2]
  cell binding by FACS: not MN-negative DLD cells
[3]
  anti-tumor effect: failed to produce any significant anti-tumor effect
[4]
  effect on spindle formation: fragmented fibers resulting from tubulin binding with MMAE and prevention of normal spindle formation
[5]
  cell binding by FACS: bind to MN-expressing MaTu cells
[6]
  internalization: selectively internalized
[7]; 5 mg/kg Q1Dx1, day 5
  cells affected by treatment in tumors: almost all cells
[7]; 1.25 and 5 mg/kg Q1Dx1, 4 hr samples
  effect on cell mechanism in tumors: little effect
[7]; 1.25 and 5 mg/kg Q1Dx1, day 1
  G2/M arrest, spindle and tubulin staining in tumors: increased numbers of cells were in G2/M arrest
[8]; MIAPaca2 (MN−)
  cytotoxicity: not to MN-negative MIAPaca2 cells
[8]; doses as high as 1 uM
  killing of MN-negative cells: Less than 10%
[8]; read-out: Cytotoxicity: MN− (ec50), MN− cells
  EC50: > 1000 nM
